Results as given in patent US20100305101A1, “Leptin genotype and ß-adrenergic agonists” (priority 2009, published 2010).
Structures can show the parent of a compound that is named as a salt.

What was measured:
[1] = Feedlot trial of leptin Arg25Cys genotype x Zilpaterol Hydrochloride administration (Cactus Research); format: in vivo, cattle; conditions: for daily dry matter intake (DDMI) during ZH treatment: last 24 days on feed; for % USDA stamped quality grade Choice+Prime, effect of ZH administration: vs no ZH
Experimental: In a trial completed at a private research facility in Texas, USA (Cactus Research, Amarillo Tex.) leptin genotype was assessed for potential interaction with Zilpaterol Hydrochloride (ZH). The trial consisted of 4,279 animals and occurred from summer of 2008 and carried through to spring of 2009. The trial was conducted as a randomized complete block design with approximately 90 animals being placed into pens based on leptin genotype and randomly assigned to drug treatment with pen being the experimental unit. Treatment structure was a 3×2 factorial including three letting genotypes (CC, CT and TT) and two drug treatments (zero control and drug treatment). Pens were blocked by time, specifically arrival date of the animal to the feedlot. Each block was slaughtered on the same day, and the complete process replicated eight times resulting in eight blocks. Below is a schematic summary of the trial design.
Upon arrival into the feedlot animals were individually weighed and back fat was measured using ultrasound. These measured were also taken 65, days on feed, and then one week prior to ZH treatment and 2-3 days prior to slaughter. All cattle were slaughtered and USDA carcass data were measured. Growth data were fitted to a non-linear growth model.
Backfat was measure by ultrasound at: • 1) Arrival • 2) 65 days on feed • 3) 1 week prior to zilpaterol initiation • 4) 2-3 days prior to slaughter 8 total blocks, 6 treatment pens per block, and 4,179 head total (avg initial wt=875 lbs) Within blocks, all treatments were killed on the same day (avg days on feed=129

[2] = RH 300 mg/steer/day, ZH 6 mg/steer/day; cited from earlier work
B-AR's = conditions: swine; within the first 7 days of treatment with RH; cited from earlier work

For `CC(C)N[C@@H]1CCn2c(=O)[nH]c3cccc(c32)[C@H]1O` (racemic) [ZH, Zilpaterol Hydrochloride], the “hot carcass weight (HCW) gain response to ZH administration” value ([1]; CC and CT genotype animals) was “largest response”, the “% empty body fat (% EBF) change when fed ZH” value ([1]; CC genotype animals) was “smallest reduction” and the “marbling score, effect of ZH administration” value ([1]; CC genotype animals) was “slight reduction”. The “daily dry matter intake (DDMI) during ZH treatment” value ([1]; CC genotype animals) was “no change”, the “% USDA stamped quality grade Choice+Prime, effect of ZH administration” value ([1]; CC genotype animals) was “unaffected” and the “daily dry matter intake (DDMI) during ZH treatment” value ([1]; CT and TT genotype animals) was “significant reduction”. The “marbling score, effect of ZH administration” value ([1]; TT and CT genotype animals) was “much greater reduction”, the “rib eye area (REA) gain with ZH administration” value ([1]; TT and CT genotype animals) was 1.4 square inches and the “% USDA stamped quality grade Choice+Prime, effect of ZH administration” value ([1]; TT and CT genotype animals) was “significant reductions”. The “% empty body fat (% EBF) change when fed ZH” value ([1]; TT genotype animals) was “largest reduction”, the “hot carcass weight (HCW) gain response to ZH administration” value ([1]; TT genotype animals) was “lowest response” and the “LM (Longissimus Muscle) area” value [2] was “larger”. The “sheer force and toughness of the muscle tissue” value [2] was “increased”.

In the case of `CC(CCc1ccc(O)cc1)NCC(O)c1ccc(O)cc1` (stereo not shown) [RH, Ractopamine Hydrochloride], the “B-AR down-regulation in adipose tissue” value (B-AR's) is listed as ~50%, the “LM (Longissimus Muscle) area” value [2] is listed as “no effect” and the “sheer force and toughness of the muscle tissue” value [2] is listed as “increased”.
